# Experimental data as given in US6319952A, “Compositions and methods for reversibly increasing permeability of biomembranes” (D-Pharm Ltd., priority 1997, dated 2001).
# Assays:
# mice = experiment: Acute intravenous toxicity test in mice; format: in vivo; details: i.v.; for dose causing mortality: mice, three days
# Experimental: An acute intravenous toxicity test was performed to study the toxicity of the branched fatty acids in mice. The study included mortality and behavioral observations during three days. The rate of mortality is represented in the Table 5. M 3/14 caused mortality at a dose of 175 mg/kg; M3/12 at a dose of 75 mg/kg and M 3/10 at a dose of 100 mg/kg. Death was observed ten minutes after i.v. injection. In sub-lethal doses no significant behavior changes were observed.
# [1] = test system: blood-brain barrier (BBB); experiment: Effect of branched chain fatty acids on BBB permeability by qualitative Evan's Blue (EB) evaluation in rats; format: in vivo, rat (male Sprague-Dawley); details: intracarotid infusion
# Experimental: Evaluation of Effect of Branched Fatty Acids on Blood-brain Barrier Permeability
# The experiments were carried out on male Sprague-Dawley rats weighing 250-320 gr. They were anesthetized with Rampun-Imalgen. The right common carotid artery was exposed.
# The test compounds were dissolved in 0.1M phosphate buffered physiological saline (pH=7.4) at the following test concentrations: 1.6; 8; 20; 40; 200 and 1000 μg/ml.
# The test compound was infused into the right common carotid artery at a rate of 6 ml/min. for 30 s. The control rats were infused with buffer. Evan's Blue (EB) solution at a concentration of […] (2 g Evan's Blue, 0.9 g NaCl in 100 ml water) was injected intravenously 50 minutes prior to the termination of the experiment.
# In the case of 45 min experiment, five minutes prior to the infusion of the tested material, 4 ml/kg body wt dose of Evans Blue solution was injected intravenously.
# At the end of the experimental time period the animals were perfused with 100 ml of saline solution through the heart and decapitated. The degree of BBB opening, in terms of extravasation of Evan's Blue albumin, was graded on the basis of visual assessment of the degree of staining of the brain ato the method of Rapoport et al. (Rapoport et al., 1980, Amer. J. Physiol. 258, 421-431), and the results are presented in Tables 1 and 2.
# The results presented are qualitative with four degrees of Evan's Blue extravasation according to Rapoport et al. Minus signs represents no staining and three plus signs represent maximal staining.
# blood brain barrier [2] = details: Sztriha and Betz; cited from earlier work
# blood brain barrier [3] = details: cited from earlier work
# membrane = details: Perlman and Goldstein; cited from earlier work
smiles,measurement,setting,value
"CCCCCCCCCCC(CCC)C(=O)O (stereo not drawn) [M 3/10, 2-propyldodecanoic acid]",Mortality,"mice; 50 mg/kg, 10 mg/ml",0/3
same,Mortality,"mice; 100 mg/kg, 10 mg/ml",3/3
same,dose causing mortality,mice,100 mg/kg
same,Visual EB,"[1]; 625 μM, 45 min",++
"CCCCCCCC/C=C\CCCCCCCC(=O)O [oleic acid, reference compound]",Visual EB,"[1]; 125 μM, 180 min",-
same,opening of the BBB,blood brain barrier [2],reversibly open the BBB
"CCCCCCCCCCC(CCCCCCCCCC)C(=O)O [M 10/10, 2-decanyldodecanoic acid]",Visual EB,"[1]; 625 μM, 45 min",++
"CCCCCCCCCCCCC(CCC)C(=O)O (stereo not drawn) [M 3/12, 2-propyltetradecanoic acid]",Mortality,"mice; 50 mg/kg, 2.5 mg/ml",0/3
same,Mortality,"mice; 75 mg/kg, 2.5 mg/ml",3/3
same,dose causing mortality,mice,75 mg/kg
same,Visual EB,"[1]; 125 μM, 180 min",++
OC[C@@H](O)[C@@H](O)[C@H](O)[C@H](O)CO [Mannitol],drug entry after barrier opening,"blood brain barrier [3]; osmotic modification, chemotherapy after barrier opening",enhanced drug entry to both brain-tumor and brain
same,complications of osmotic BBB modification,blood brain barrier [3]; osmotic modification,"clinical manifestation of stroke, seizures, immunological reaction and ocular toxicity"
same,duration of BBB opening,"blood brain barrier [3]; osmotic treatment, Greig",very short period
CCCC(CCC)C(=O)O [valproic acid],membrane disordering,membrane,membrane disordering potency
